Legend:
Format in all cases: cell-based
[1] = system: NK T cells; experiment: NK T cell activation screens (Example, FIG. 5 and Table 1); settings: see Example
Text: Using these methods, we produced more than 60 novel amino substituted analogues of KRN7000. These were screened in a functional assay that assessed the ability of the compounds to activate NK T cell hybridomas in the presence of various types of cells expressing CD1d, or in the presence of recombinant CD1d proteins bound to the tissue culture plate surface (FIG. 5).

[2] = system: Bulk splenocytes from C57BL/6 mice; experiment: Splenocyte proliferation assay (3H-thymidine incorporation); settings: concentration giving 50% maximal response in proliferation of splenocyte cultures, 3H-thymidine incorporation
Method: The results were obtained using a splenocyte proliferation assay according to the following procedure: Bulk splenocytes from C57BL/6 mice were plated at 300,000 per well in 96-well flat-bottom tissue culture plates with the indicated ceramide-like glycolipid diluted in complete medium to the concentrations shown. After 48 h at 37° C., the plate wells were pulsed with 20 microliters of medium containing 50 microCi/ml ^3H-thymidine and incubated for a further 18 h. Cell proliferation was estimated by harvesting pulsed cells onto 96-well filtermats and scintillation counting on a 1450 Microbeta Trilux instrument (Wallac/Perkin Elmer, Boston, Mass.).

[3] = system: iNKT cells; experiment: In vitro cytokine modulation, murine cell assay system; settings: for in vitro activity at modulating cytokines: murine cell assay system; for IFNγ induction: DB03-3: in some murine strains
Text: The term iNKT cells, as used herein, mean the specific subset of CD1d-dependent T cells that expresses the invariant TCRα chain rearrangement consisting of Vα14-Jα18 in mice, and Vα24-Jα18 in humans. These cells are uniformly reactive to α-galactosylceramides presented by CD1d. These cells are also referred to as “Type 1” NKT cells, and the distinction between the different types of NKT cells and the nomenclature relating to this are summarized in the publication by Godfrey et al., Nat Rev Immunol. 2004 March; 4(3):231-7. Methods for determining cytokine production by iNKT cells in response to CD1d-presented glycolipids for determination of strong or weak agonist activity are described in Yu K O A, Im J S, Molano A, Dutronc Y, Illarionov P A, Forestier C, Fujiwara N, Arias I, Miyake S, Yamamura T, Chang Y-T, Besra G S, Porcelli S A, Modulation of CD1d-restricted NKT cell responses using N-acyl variants of α-galactosylceramides, Proc. Nat. Acad. Sci. (USA), 102:3383-8 (2005), see also Godfrey D I et al., Nat Rev Immunol. 2004 March; 4(3):231-7.

[4] = system: Bulk splenocytes from C57BL/6 mice; experiment: Cytokine response of splenocyte cultures (IL-4 and IFNγ ELISA); settings: 500 nM glycolipid, 48 hours; for Cytokine Response IFNγ / Cytokine Response IL-4: culture supernatant ELISA, ND = below the reliable level for detection
Method: The cytokine response reported in Table 1 and FIG. 5C was determined by the following procedure: Bulk splenocytes from C57BL/6 mice were plated at 300,000 per well in 96-well flat-bottom tissue culture plates with ceramide-like glycolipids diluted to a concentration of 500 nM in 200 microliters complete medium. After 48 h at 37° C., 150 microliters of supernatant was removed for cytokine measurements. Supernatant levels of IL-4, and IFNγ were measured by standard enzyme-linked immunosorbent assay (ELISA), using capture and biotinylated detection antibody pairs (clones 11B11/BVD6-24G2-biotin, and R4-6A2/XMG1.2-biotin, respectively, from BD Pharmingen, San Diego, Calif.). […] Standards for IL-4 and IFNγ were from Peprotech (Rocky Hill, N.J.).

CCCCCCCCCCCCCCC(O)C(O)C(COC1OC(CO)C(O)C(O)C1O)NC(=O)CCCCCCCCCCC (centres unmarked) [YTC03-35]
effectiveness of compound [1]: Particularly effective

CCCCCCCCCCCCCC[C@@H](O)[C@@H](O)[C@H](CO[C@H]1O[C@H](CO)[C@H](O)[C@H](O)[C@H]1O)NC(=O)[C@H](Cc1ccccc1)NC(=O)OC(C)(C)C [YTCO3-57]
EC50 [2]: 2.19 µM

CCCCCCCCCCCCCC[C@@H](O)[C@@H](O)[C@H](CO[C@H]1O[C@H](CO)[C@H](O)[C@H](O)[C@H]1O)N=[N+]=[N-] [DB03-7]
in vitro activity at modulating cytokines [3]: show in vitro activity

CCCCCCCCCCCCCC[C@@H](O)[C@@H](O)[C@H](CO[C@H]1O[C@H](CO)[C@H](O)[C@H](O)[C@H]1O)NC(=O)Cc1cc(OC)ccc1OC [YTCO3-54]
EC50 [2]: 0.0172 µM
IL-4/IFNγ ratio divided by this ratio for DB01-1 (value in parentheses) [4]: 0.4
ratio IL-4/IFNγ [4]: 0.011
Cytokine Response IFNγ [4]: 10.39 ng/mL
Cytokine Response IL-4 [4]: 0.11 ng/mL

CCCCCCCCCCCCCCC(O)C(O)C(COC1OC(CO)C(O)C(O)C1O)NC(=O)Cc1ccc2c(c1)OCO2 (centres unmarked) [YTCO3-44]
EC50 [2]: 0.0571 µM
IL-4/IFNγ ratio divided by this ratio for DB01-1 (value in parentheses) [4]: 3.7
ratio IL-4/IFNγ [4]: 0.097
Cytokine Response IFNγ [4]: 14.19 ng/mL
Cytokine Response IL-4 [4]: 1.38 ng/mL

CCCCCCCCCCCCCC[C@@H](O)[C@@H](O)[C@H](CO[C@H]1O[C@H](CO)[C@H](O)[C@H](O)[C@H]1O)NC(=O)Cc1cccc2ccccc12 [YTCO3-56]
EC50 [2]: 0.0114 µM
effectiveness of compound [1]: Particularly effective
IL-4/IFNγ ratio divided by this ratio for DB01-1 (value in parentheses) [4]: 0.7
ratio IL-4/IFNγ [4]: 0.019
Cytokine Response IFNγ [4]: 11.79 ng/mL
Cytokine Response IL-4 [4]: 0.22 ng/mL

CCCCCCCCCCCCCC[C@@H](O)[C@@H](O)[C@H](CO[C@H]1O[C@H](CO)[C@H](O)[C@H](O)[C@H]1O)NC(=O)C(c1ccccc1)C1CCCC1 (some centres unmarked) [YTCO3-50]
EC50 [2]: 0.0054 µM
effectiveness of compound [1]: Particularly effective
IL-4/IFNγ ratio divided by this ratio for DB01-1 (value in parentheses) [4]: 0.3
ratio IL-4/IFNγ [4]: 0.007
Cytokine Response IFNγ [4]: 9.47 ng/mL
Cytokine Response IL-4 [4]: 0.07 ng/mL

CCCCCCCCCCCCCCC(O)C(O)C(COC1OC(CO)C(O)C(O)C1O)NC(=O)Cc1ccccc1OC (centres unmarked) [YTCO3-43]
EC50 [2]: 0.0869 µM
IL-4/IFNγ ratio divided by this ratio for DB01-1 (value in parentheses) [4]: 0.7
ratio IL-4/IFNγ [4]: 0.018
Cytokine Response IFNγ [4]: 19.50 ng/mL
Cytokine Response IL-4 [4]: 0.35 ng/mL

CCCCCCCCCCCCCC[C@@H](O)[C@@H](O)[C@H](CO[C@H]1O[C@H](CO)[C@H](O)[C@H](O)[C@H]1O)NC(=O)Cc1ccc(OCC)cc1 [YTCO3-59]
EC50 [2]: 0.0001 µM
effectiveness of compound [1]: Particularly effective
IL-4/IFNγ ratio divided by this ratio for DB01-1 (value in parentheses) [4]: 309.4
ratio IL-4/IFNγ [4]: 8.045
Cytokine Response IFNγ [4]: 0.22 ng/mL
Cytokine Response IL-4 [4]: 1.77 ng/mL

CCCCCCCCCCCCCCC(O)C(O)C(COC1OC(CO)C(O)C(O)C1O)NC(=O)CCCCC (centres unmarked) [YTC03-31]
effectiveness of compound [1]: Particularly effective

CCCCCCCCCCCCCC[C@@H](O)[C@@H](O)[C@H](CO[C@H]1O[C@H](CO)[C@H](O)[C@H](O)[C@H]1O)NC(=O)Cc1ccc(Br)cc1 [YTCO3-47]
EC50 [2]: 0.0075 µM
effectiveness of compound [1]: Particularly effective
IL-4/IFNγ ratio divided by this ratio for DB01-1 (value in parentheses) [4]: 0.4
ratio IL-4/IFNγ [4]: 0.011
Cytokine Response IFNγ [4]: 19.63 ng/mL
Cytokine Response IL-4 [4]: 0.21 ng/mL

CCCCCCCCCCCCCC[C@@H](O)[C@@H](O)[C@H](CO[C@H]1O[C@H](CO)[C@H](O)[C@H](O)[C@H]1O)NC(=O)C(C)(c1ccccc1)c1ccccc1 [YTCO3-58]
EC50 [2]: 0.0518 µM
IL-4/IFNγ ratio divided by this ratio for DB01-1 (value in parentheses) [4]: 0.9
ratio IL-4/IFNγ [4]: 0.024
Cytokine Response IFNγ [4]: 8.64 ng/mL
Cytokine Response IL-4 [4]: 0.21 ng/mL

CCCCCCCCCCCCCCC(O)C(O)C(COC1OC(CO)C(O)C(O)C1O)NC(=O)C=Cc1ccccc1 (centres unmarked) [YTCO3-42]
EC50 [2]: > 2.5 µM

CCCCCCCCCCCCCC[C@@H](O)[C@@H](O)[C@H](CO[C@H]1O[C@H](CO)[C@H](O)[C@H](O)[C@H]1O)NC(=O)Cc1cccc(C)c1 [YTCO3-52]
EC50 [2]: 0.017 µM
IL-4/IFNγ ratio divided by this ratio for DB01-1 (value in parentheses) [4]: 0.7
ratio IL-4/IFNγ [4]: 0.019
Cytokine Response IFNγ [4]: 10.25 ng/mL
Cytokine Response IL-4 [4]: 0.19 ng/mL

CCCCCCCCCCCCCC[C@@H](O)[C@@H](O)[C@H](CO[C@H]1O[C@H](CO)[C@H](O)[C@H](O)[C@H]1O)NC(=O)C(CC)c1ccccc1 (some centres unmarked) [YTCO3-61]
EC50 [2]: 0.0724 µM
IL-4/IFNγ ratio divided by this ratio for DB01-1 (value in parentheses) [4]: 0.9
ratio IL-4/IFNγ [4]: 0.023
Cytokine Response IFNγ [4]: 7.50 ng/mL
Cytokine Response IL-4 [4]: 0.17 ng/mL

CCCCCCCCCCCCCC[C@@H](O)[C@@H](O)[C@H](COC1OC(CO)C(O)C(O)C1O)NC(=O)Cc1ccc(OC)cc1 (some centres unmarked) [YTC03-33]
effectiveness of compound [1]: Particularly effective

CCCCCCCCCCCCCC[C@@H](O)[C@@H](O)[C@H](CO[C@H]1O[C@H](CO)[C@H](O)[C@H](O)[C@H]1O)NC(=O)c1ccc(OCCCCCCC)cc1 [YTCO3-53]
EC50 [2]: 0.038 µM
IL-4/IFNγ ratio divided by this ratio for DB01-1 (value in parentheses) [4]: 1.2
ratio IL-4/IFNγ [4]: 0.030
Cytokine Response IFNγ [4]: 0.67 ng/mL
Cytokine Response IL-4 [4]: 0.02 ng/mL

CCCCCCCC/C=C\CCCCCCCCCC(=O)N[C@@H](COC1OC(CO)C(O)C(O)C1O)[C@H](O)[C@H](O)CCCCCCCCCCCCCC (some centres unmarked) [DB03-3]
IL-4 induction ([3]; in vitro): good inducer of L-4
IFNγ induction ([3]; in vitro): strong inducer of IFNγ
in vitro activity at modulating cytokines [3]: show in vitro activity

CCCCCCCCCCCCCCC(O)C(O)C(COC1OC(CO)C(O)C(O)C1O)NC(=O)Cc1ccccc1Cl (centres unmarked) [YTCO3-45]
EC50 [2]: 0.222 µM
IL-4/IFNγ ratio divided by this ratio for DB01-1 (value in parentheses) [4]: 1.6
ratio IL-4/IFNγ [4]: 0.041
Cytokine Response IFNγ [4]: 15.26 ng/mL
Cytokine Response IL-4 [4]: 0.63 ng/mL

CCCCCCCCCCCCCC[C@@H](O)[C@@H](O)[C@H](CO[C@H]1O[C@H](CO)[C@H](O)[C@H](O)[C@H]1O)NC(=O)C(c1ccccc1)C(C)CC (some centres unmarked) [YTCO3-60]
EC50 [2]: 0.0109 µM
effectiveness of compound [1]: Particularly effective
IL-4/IFNγ ratio divided by this ratio for DB01-1 (value in parentheses) [4]: 0.8
ratio IL-4/IFNγ [4]: 0.022
Cytokine Response IFNγ [4]: 8.18 ng/mL
Cytokine Response IL-4 [4]: 0.18 ng/mL

CCCCCCCCCCCCCC[C@@H](O)[C@@H](O)[C@H](CO[C@H]1O[C@H](CO)[C@H](O)[C@H](O)[C@H]1O)NC(=O)C(OC)c1ccccc1 (some centres unmarked) [YTCO3-48]
EC50 [2]: 0.0869 µM
IL-4/IFNγ ratio divided by this ratio for DB01-1 (value in parentheses) [4]: 0.6
ratio IL-4/IFNγ [4]: 0.016
Cytokine Response IFNγ [4]: 12.56 ng/mL
Cytokine Response IL-4 [4]: 0.20 ng/mL

CCCCCCCCCCCCCC[C@@H](O)[C@@H](O)[C@H](CO[C@H]1O[C@H](CO)[C@H](O)[C@H](O)[C@H]1O)NC(=O)Cc1ccc(C)cc1 [YTCO3-51]
EC50 [2]: 0.0638 µM
IL-4/IFNγ ratio divided by this ratio for DB01-1 (value in parentheses) [4]: 0.2
ratio IL-4/IFNγ [4]: 0.006
Cytokine Response IFNγ [4]: 9.03 ng/mL
Cytokine Response IL-4 [4]: 0.05 ng/mL

CCCCCCCCCCCCCC[C@@H](O)[C@@H](O)[C@H](CO[C@H]1O[C@H](CO)[C@H](O)[C@H](O)[C@H]1O)NC(=O)C1(c2ccccc2)CCCC1 [YTCO3-46]
EC50 [2]: 0.0048 µM
effectiveness of compound [1]: Particularly effective
IL-4/IFNγ ratio divided by this ratio for DB01-1 (value in parentheses) [4]: 1.0
ratio IL-4/IFNγ [4]: 0.026
Cytokine Response IFNγ [4]: 8.52 ng/mL
Cytokine Response IL-4 [4]: 0.22 ng/mL

CCCCC/C=C\C/C=C\CCCCCCCC(=O)N[C@@H](COC1OC(CO)C(O)C(O)C1O)[C@H](O)[C@H](O)CCCCCCCCCCCCCC (some centres unmarked) [DB03-10]
IL-2 induction ([3]; in vitro): weak inducers of IL-2
IL-4 induction ([3]; in vitro): strong inducers of IL-4
IFNγ induction ([3]; in vitro): moderate inducers of IFNγ
in vitro activity at modulating cytokines [3]: show in vitro activity

CCCCCCCCCCCCCC[C@@H](O)[C@@H](O)[C@H](CO[C@H]1O[C@H](CO)[C@H](O)[C@H](O)[C@H]1O)NC(=O)Cc1c(F)cccc1Cl [YTCO3-49]
EC50 [2]: 0.0571 µM
IL-4/IFNγ ratio divided by this ratio for DB01-1 (value in parentheses) [4]: 1.1
ratio IL-4/IFNγ [4]: 0.028
Cytokine Response IFNγ [4]: 4.57 ng/mL
Cytokine Response IL-4 [4]: 0.13 ng/mL
